Structures can show the parent of a compound that is named as a salt.
What was measured:
Assay type in all cases: biochemical
[1] = test system: noradrenaline (NA) reuptake in synaptosomes; assay: Inhibition of NA reuptake in synaptosomes; details: 3H-NA, read-out: NA-uptake IC50
Experimental: (§1) Compounds were tested for their ability to inhibit the reuptake of the monoamine neurotransmitters dopamine (DA) noradrenaline (NA) and serotonine (5-HT) in synaptosomes as described in WO 97/16451 (NeuroSearch A/S).
(§2) The test values are given as IC50 (the concentration (μM) of the test substance which inhibits the specific binding of ^3H-DA, ^3H-NA, or ^3H-5-HT by 50%).

[2] = test system: dopamine (DA) reuptake in synaptosomes; assay: Inhibition of DA reuptake in synaptosomes; details: 3H-DA, read-out: DA-uptake IC50
Experimental: as §1, §2

[3] = test system: serotonine (5-HT) reuptake in synaptosomes; assay: Inhibition of 5-HT reuptake in synaptosomes; details: 3H-5-HT, read-out: 5-HT-uptake IC50
Experimental: as §1, §2

IC50 [1]: 3.8 nM
IC50 [2]: 70 nM
IC50 [3]: 2.9 nM
Structure (SMILES): COc1cc2ccc(O[C@@H]3C[C@H]4CC[C@@H](C3)N4)cc2oc1=O [Compound 1.1, Exo-7-[(-8-azabicyclo[3.2.1]octan-3-yl)oxy]-3-methoxy-chromen-2-one hydrochloride]

From patent US9133184B2, “Chromen-2-one derivatives and their use as monoamine neurotransmitter re-uptake inhibitors” (ANIONA APS, priority 2010, dated 2015)
